Where two headings read alike, the source gives them in different places.
Experiments:
β-glucuronidase = details: cells, blood, cited from earlier work
[1] = cited from earlier work
[2] = test system: 7,12-dimethylbenz(a)anthracene-induced mammary tumors; assay: DMBA-induced mammary tumor formation in rats fed CGT, HPR or both; format: in vivo, female Sprague Dawley rats; details: for Rats with tumors / Total No. tumors: 20 rats
Method: They were maintained on the diets for approximately 4 mos., and were examined (palpated) for mammary tumors weekly. […] The retinoid (HPR) was first dissolved in 25 ml of a vehicle consisting of ethanol-tricaprylin-6% α-tocopherol, then thoroughly mixed with powdered rat chow.

carcinogenesis = details: higher doses of CGT; cited from earlier work
[3] = test system: 7,12-dimethylbenz(a)anthracene-induced mammary tumorigenesis; details: cited from earlier work
[4] = test system: established DMBA-induced mammary tumors; assay: Growth of established DMBA-induced mammary tumors; format: in vivo, female Sprague Dawley rats; details: 2 mmol/kg diet; within 5 to 10 days
Method: (§1) When higher doses (2 mmol/kg diet) of HPR were used, growth arrest was followed within 5 to 10 days by 30% regression of the DMBA-induced mammary tumors. Also, HPR (0.1 uM) inhibited the […] growth of the human breast cancer cell line (MCF-7) to 50% of the control within 7 days.

[5] = test system: established mammary tumors; assay: Growth of established mammary tumors in CD8 F1 mice; format: in vivo
Method: as §1

[6] = test system: cellular cAMP (cyclic AMP) and histone kinases; details: cited from earlier work

2,4-di-O-acetyl-D-glucaro-1,4-lactone
inhibition of β-glucuronidase (β-glucuronidase; urine, intestine and liver): effective as inhibitors of β-glucuronidase | release of D-glucaro-1,4-lactone (GL) when fed ([1]; in vivo): slowly release D-glucaro-1,4-lactone (GL)

O=C([O-])[C@@H](O)[C@@H](O)[C@H](O)[C@@H](O)C(=O)[O-].[Ca+2] [CGT, calcium glucarate]
inhibition of tumor incidence ([2]; 1.0% CGT alone): 20% | inhibition of tumors/rat ([2]; 1.0% CGT alone): 9% | Tumor Incidence ([2]; 1% CGT in chow diet): 55 | Tumors per rat ([2]; 1% CGT in chow diet): 1.0 | Rats with tumors ([2]; 1% CGT in chow diet): 11 | Total No. tumors ([2]; 1% CGT in chow diet): 20 | Tumor Incidence ([2]; 2% CGT in chow diet): 55 | Tumors per rat ([2]; 2% CGT in chow diet): 1.0 | Rats with tumors ([2]; 2% CGT in chow diet): 11 | Total No. tumors ([2]; 2% CGT in chow diet): 20 | Tumor Incidence ([2]; 4% CGT in chow diet): 35 | Tumors per rat ([2]; 4% CGT in chow diet): 0.5 | Rats with tumors ([2]; 4% CGT in chow diet): 7 | Total No. tumors ([2]; 4% CGT in chow diet): 10 | inhibition of β-glucuronidase (β-glucuronidase; urine, intestine and liver): effective as inhibitors of β-glucuronidase | effectiveness against lung, colon and mammary carcinogenesis (carcinogenesis): effective against lung, colon and mammary carcinogenesis | tumor induction relative to controls ([3]; 4% CGT diet, started two weeks after carcinogen, by 28 weeks): 30% | food consumption and weight gain ([3]; CGT-supplemented diet vs normal chow diet): ate quantities of food and had weight gain identical to those on the normal chow diet | steady-state level of sex hormones ([3]; anti-promotional effect of CGT, probable cause): reduction in the steady-state level of sex hormones | release of D-glucaro-1,4-lactone (GL) when fed ([1]; fed): slowly release D-glucaro-1,4-lactone (GL)

O=C(O)[C@@H](O)[C@H]1OC(=O)[C@H](O)[C@H]1O [GL, D-glucaro-1,4-lactone]
inhibition of β-glucuronidase (β-glucuronidase; urine and intestine): potent inhibitor of β-glucuronidase

CC1=C(/C=C/C(C)=C/C=C/C(C)=C/C(=O)Nc2ccc(O)cc2)C(C)(C)CCC1 [HPR, N-(4-hydroxyphenyl)retinamide]
inhibition of tumor incidence ([2]; 0.75 mmol/kg HPR alone): 15% | inhibition of tumors/rat ([2]; 0.75 mmol/kg HPR alone): 9% | Rats with tumors ([2]; 0.75 mmol/kg diet HPR): 12 | regression of the DMBA-induced mammary tumors, following growth arrest [4]: 30% | inhibition of tumor growth [5]: 50% | level of cellular cAMP and of histone kinases [6]: elevate the level of cellular cAMP (cyclic AMP) and of histone kinases

O=C(O)[C@@H](O)[C@@H](O)[C@H](O)[C@@H](O)C(=O)[O-].[K+] [potassium hydrogen glucarate]
inhibition of β-glucuronidase (β-glucuronidase; urine, intestine and liver): effective as inhibitors of β-glucuronidase | release of D-glucaro-1,4-lactone (GL) when fed ([1]; fed): slowly release D-glucaro-1,4-lactone (GL)
